Experimental data from ChEMBL document CHEMBL4387791, “Bioactive Polyketide Derivatives from the Mangrove-Derived Fungus Daldinia eschscholtzii HJ004” (J Nat Prod, 2019).
Activity calls are given as the source filed them. The calls are words filed in the database; no cut-off is given here.

Tests used:
[1] = system: Staphylococcus aureus; assay: Antibacterial activity against methicillin-resistant Staphylococcus aureus ATCC 33591 by microplate assay method; type: functional, organism-based
[2] = system: Staphylococcus aureus; assay: Antibacterial activity against Staphylococcus aureus ATCC 25923 by microplate assay method; type: functional, organism-based
[3] = system: Vibrio alginolyticus; assay: Antibacterial activity against Vibrio alginolyticus ATCC 17802 by microplate assay method; type: functional, organism-based
[4] = system: Vibrio parahaemolyticus; assay: Antibacterial activity against Vibrio parahaemolyticus ATCC 17749 by microplate assay method; type: functional, organism-based
[5] = system: Staphylococcus epidermidis; assay: Antibacterial activity against Staphylococcus albus ATCC 8032 by microplate assay method; type: functional, organism-based
[6] = Inhibition of Saccharomyces cerevisiae alpha-glucosidase using PNP-G as substrate incubated for 20 mins followed by substrate addition

Structure (SMILES)	Activity [1]	Activity [2]	Activity [3]	Activity [4]	Activity [5]	IC50 [6]
C/C=C(\C)[C@@H]1OC(=O)C(C)(C)[C@@H](O)[C@H]1C	inactive	inactive	inactive	inactive	inactive	16 µM
CCc1c(O)cc2c(=O)oc(C)c(C)c(=O)c2c1OC	inactive	inactive	inactive	inactive	inactive	54 µM
COc1cccc2c1C(=O)CC(C)O2 (stereo unspecified)	inactive	inactive	inactive	inactive	inactive	15 µM
C/C=C(\C)[C@@H]1OC(=O)C(C)(C)[C@H](O)[C@H]1C	inactive	inactive	inactive	inactive	inactive	31 µM
C[C@H]1O[C@H](O[C@H]2[C@H](O)[C@@H](O)[C@@H](O[C@H]3[C@H](O)[C@@H](O)C(O)O[C@@H]3CO)O[C@@H]2CO)[C@H](O)[C@@H](O)[C@@H]1N[C@H]1C=C(CO)[C@@H](O)[C@H](O)[C@H]1O (stereo partly specified) [ACARBOSE]						3 µM
COc1cccc2c1[C@H](O)CCC2=O	inactive	inactive	inactive	inactive	inactive	90 µM
CCc1c(OC)cc2c(c1O)C(=O)[C@H](C)[C@@H](C)[C@@H]2O	inactive	inactive	inactive	inactive	inactive	35 µM
CCCc1cc(=O)c2c(OC)cccc2o1	inactive	inactive	inactive	inactive	inactive	84 µM
CCc1ccc2c(c1O)C(=O)[C@](O)(CC)[C@@H](O)C2	inactive	inactive	inactive	inactive	inactive	38 µM
Cc1cc2c(c(O)c1C)C(=O)C[C@@H](O)[C@H]2O (relative stereo)	inactive	inactive	inactive	inactive	inactive	21 µM
COc1cc(O)cc2oc(C)c(C)c(=O)c12	inactive	inactive	inactive	inactive	inactive	13 µM
CCc1c(OC)cc2c(=O)c(C)c(C)oc2c1O	inactive	inactive	inactive	inactive	inactive	100 µM
O=C1CC[C@H](O)c2cccc(O)c21	inactive	inactive	inactive	inactive	inactive	70 µM
C/C(=C\CO)[C@@H]1OC(=O)C(C)(C)[C@@H](O)[C@H]1C	inactive	inactive	inactive	inactive	inactive	20 µM
CC(=O)OC/C=C(\C)[C@@H]1OC(=O)C(C)(C)[C@@H](O)[C@H]1C	inactive	inactive	inactive	inactive	inactive	240 µM
CCc1c(OC)cc2c(c1O)C(=O)[C@H](C)[C@@H](C)[C@H]2O	inactive	inactive	inactive	inactive	inactive	155 µM
